According to patent publication US20230202981A1, “NOVEL SMALL MOLECULES FOR TARGETED DEGRADATION OF UNTARGETABLE KRAS IN CANCER THERAPY” (Pillai Universal LLC, priority 2020, published 2023):
Read-outs that look alike come from different tables or passages of the source.

Experiments:
[1] = biological target: wild-type (WT) HER2 (Homo sapiens, UniProt P04626); experiment: Enzyme activity of EGFR family members; format: biochemical
Source text: (§1) The activity of Compound 1 on various mutated EGFRs, HER2, and HER4 were examined. MTT assays, flow cytometry, and Western blotting were used to examine the effects of Compound 1 on with different genetic characteristics and relevant molecular mechanisms. Nude mouse xenograft models with cells were used to evaluate the in vim anti-tumor activity of Compound 1. […] Compound 1 blocked EGFR phosphorylation, thereby down regulating downstream PI3/AKT and MAPK/ERK signaling pathways and inducing G0/G1 arrest in different cells. […] Due to compromised homologous recombination (HR) repair, BRCA 1-and BRCA 2-mutated tumours accumulate DNA damage and genomic rearrangements conducive of tumour progression.

[2] = system: drug-sensitive EGFR mutations, and EGFR C797S mutations; experiment: Enzyme activity of EGFR family members; format: biochemical
Source text: as §1

[3] = In vivo toxicity studies
Source text: FIG. 20 depicts the results of in vivo toxicity studies of Compound 1. Organ weight, Body weight, liver weight, haematological parameters, serum electrolyte LFT, KFT, Lipid parameters found to be normal range compared with the controlled group.
Tests of blood cells (WBC, RBC, and PLT) for bone marrow, RFT for kidney, and ALT/AST for liver functions all provided results in the normal range.

[4] = system: miR-30c and miR-21 in mutant KRAS; experiment: miR-30c and miR-21 and tumor suppressor gene expression (microarray analysis); format: cell-based
Source text: The effect of Compound 1 on the expression of miR 30c and miR-21 in mutant form of KRAS and Wild type was observed. […] Based on these observation our molecules targets miRNA in KRAS mutant model which acts as an attractive therapeutic tools in cancer medicine, because these miRNA that can silence multiple gene(s) and therefore switch off different pathways simultaneously, which is not possible with protein-based drugs and other covalent inhibitor of different KRAS mutant form, and eventually Compound 1 has no toxicity or off target effects compared to other standard drugs

[5] = biological target: KRAS (Homo sapiens, UniProt P01116); experiment: Binding to KRAS in vitro
Source text: The present invention is aimed to invent powerful, therapeutic small molecules that could target mutant KRAS on its active sites. Here we identified a small molecule, compound I, that binds the GTP/GDP-binding pocket of KRAS. For this purpose we studied a strong correlation of measurement among a larger panel of tumor cell lines expressing KRAS mutation and analyses the potency to inhibit the tumor cell growth activated RAS. […] Therefore, compound I may be considered as a potential KRAS inhibitor for treatment of cancer cells carrying KRAS oncogene.
From the above biological examples it is clearly inferred that the Compound 1 as a new class of KRAS that selectively targets the GTP/GDP binding pocket. […] Compound 1 to 5-induced hyperactivation of mutant KRAS facilitates apoptotic cell death in mutant KRAS cancer cells. Combining the results with detailed structural analysis, we are able to describe key ligand-receptor interactions that correlate with activity. Thus, showing that our screening techniques were very successful at generating KRAS binders that have effects on signaling in cells. […] Therefore, compound Compound 1 is a promising hit for the development of novel non-covalent KRAS inhibitors. The development of this new class of anticancer drug offers a potentially effective strategy for the treatment of cancer with KRAS mutation and/or mutant KRAS-driven cancer. […]

[6] = Pharmacokinetics in rats; format: in vivo
[7] = system: BT-549; experiment: IC50 of Compound 1 on breast cells (MTT assay); format: cell-based; settings: Homo sapiens; BT-549 cells
Source text: as §1

[8] = system: MDA-MB-468; experiment: IC50 of Compound 1 on breast cells (MTT assay); format: cell-based; settings: Homo sapiens; MDA-MB-468 cells
Source text: as §1

[9] = system: MDA-MB-231; experiment: IC50 of Compound 1 on breast cells (MTT assay); format: cell-based; settings: Homo sapiens; MDA-MB-231 cells
Source text: as §1

[10] = system: MCF-7; experiment: IC50 of Compound 1 on breast cells (MTT assay); format: cell-based; settings: Homo sapiens, MCF7; MCF-7 cells
Source text: as §1

[11] = system: HCC1937; experiment: IC50 of Compound 1 on breast cells (MTT assay); format: cell-based; settings: Homo sapiens
Source text: as §1

[12] = system: T-47D; experiment: IC50 of Compound 1 on breast cells (MTT assay); format: cell-based; settings: Homo sapiens, T47D; T-47D cells
Source text: as §1

[13] = system: MCF-10A; experiment: IC50 of Compound 1 on breast cells (MTT assay); format: cell-based; settings: Homo sapiens; MCF-10A cells
Source text: as §1

[14] = system: BT-474; experiment: IC50 of Compound 1 on breast cells (MTT assay); format: cell-based; settings: Homo sapiens; BT-474 cells
Source text: as §1

[15] = system: ZR-75-1; experiment: IC50 of Compound 1 on breast cells (MTT assay); format: cell-based; settings: Homo sapiens; ZR-75-1 cells
Source text: as §1

[16] = system: MDA-MB-453; experiment: IC50 of Compound 1 on breast cells (MTT assay); format: cell-based; settings: Homo sapiens; MDA-MB-453 cells
Source text: as §1

[17] = system: KRAS-driven lung tumor; experiment: Tumor growth in xenograft model; format: in vivo
Experimental: The in vivo efficacy of Compound 1 in the context of mutant KRAS was next assessed. Cells were injected into nude mice, and the tumors were allowed to grow to about 60 mm^3 in size and treated daily with Compound 1 for 14-21 days. […] At the day of harvest, the net tumor mass was determined and the average tumor weight of the Compound 1 treatment group was 89% less than the average tumor weight of the control group. […] The effect of Compound 1 treatment were further examined on KRAS-mediated RAF, MEK/ERK, and PI3K/AKT cascades in protein extracts derived from vehicle- and Compound 1-treated tumors.

[18] = system: mutant-KRAS-driven cancer; experiment: In vivo tumor model (PDTX animal model); parameters: species or system mice
Source text: FIG. 18 depicts regression of all mutant-KRAS-driven cancer in PDTX Animal Model.
Compound 1 was also found to inhibit downstream signaling.

[19] = system: tumor xenograft; experiment: Nude mouse xenograft models (EGFR/HER2 study); format: in vivo
Source text: as §1

Sequence of KRAS (P01116 1-188 isoform P01116-2): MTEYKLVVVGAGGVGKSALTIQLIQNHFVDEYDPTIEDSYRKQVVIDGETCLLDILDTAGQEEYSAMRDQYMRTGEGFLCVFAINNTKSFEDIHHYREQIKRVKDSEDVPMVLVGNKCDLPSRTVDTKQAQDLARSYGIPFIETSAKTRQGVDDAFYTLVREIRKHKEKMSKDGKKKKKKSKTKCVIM
Sequence of wild-type (WT) HER2 (P04626 23-1255): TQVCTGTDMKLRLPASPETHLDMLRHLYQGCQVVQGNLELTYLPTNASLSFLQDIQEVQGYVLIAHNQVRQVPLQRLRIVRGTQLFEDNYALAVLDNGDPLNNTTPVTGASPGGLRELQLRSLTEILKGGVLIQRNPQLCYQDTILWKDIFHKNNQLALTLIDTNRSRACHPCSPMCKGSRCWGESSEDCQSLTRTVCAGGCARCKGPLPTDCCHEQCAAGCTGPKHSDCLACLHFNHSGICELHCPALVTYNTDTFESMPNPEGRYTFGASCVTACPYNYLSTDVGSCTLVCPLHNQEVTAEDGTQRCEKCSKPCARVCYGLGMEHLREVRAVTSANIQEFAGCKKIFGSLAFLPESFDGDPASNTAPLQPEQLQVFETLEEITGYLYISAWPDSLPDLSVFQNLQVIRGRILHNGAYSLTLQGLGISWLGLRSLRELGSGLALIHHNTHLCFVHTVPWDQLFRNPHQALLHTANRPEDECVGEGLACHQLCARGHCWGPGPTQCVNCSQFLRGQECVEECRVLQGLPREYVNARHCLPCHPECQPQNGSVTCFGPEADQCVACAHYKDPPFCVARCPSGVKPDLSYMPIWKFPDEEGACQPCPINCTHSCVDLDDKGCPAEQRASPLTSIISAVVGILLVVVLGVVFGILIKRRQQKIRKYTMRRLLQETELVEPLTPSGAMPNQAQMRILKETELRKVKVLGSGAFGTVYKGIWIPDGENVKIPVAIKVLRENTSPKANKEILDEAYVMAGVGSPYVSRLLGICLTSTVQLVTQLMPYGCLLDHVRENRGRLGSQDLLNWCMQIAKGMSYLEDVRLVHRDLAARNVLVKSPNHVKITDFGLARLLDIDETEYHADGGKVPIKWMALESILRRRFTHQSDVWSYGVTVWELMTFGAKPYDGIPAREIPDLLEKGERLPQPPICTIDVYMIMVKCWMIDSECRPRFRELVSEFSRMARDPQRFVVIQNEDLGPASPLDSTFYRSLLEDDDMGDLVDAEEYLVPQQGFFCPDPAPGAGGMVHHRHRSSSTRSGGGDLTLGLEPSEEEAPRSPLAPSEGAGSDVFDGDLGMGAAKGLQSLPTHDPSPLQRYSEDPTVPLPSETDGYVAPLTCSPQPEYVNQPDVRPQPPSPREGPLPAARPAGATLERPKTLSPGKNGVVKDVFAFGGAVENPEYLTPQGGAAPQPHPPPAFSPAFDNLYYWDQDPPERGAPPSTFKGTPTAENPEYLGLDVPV

For `CCCCc1ncc(C(=O)C2CC=C(C(N)=O)N2)cc1C(=O)OCC` (centres unmarked) [Compound 1], the “enzyme activity of HER2” value [1] was “effectively inhibited the enzyme activity”, the “enzyme activity of mutated EGFR” value [2] was “effectively inhibited the enzyme activity” and the “histopathology of harvested normal tissues” value ([3]; after treatment with specific doses) was “no evidence of normal tissue toxicities”. For the same compound, the “blood cells, kidney and liver function tests, organ and body weight” value ([3]; compared with the controlled group) was “normal range”, the miR21 expression ([4]; control 0.72 ± 0.02) was 1.58 ± 0.32 and the miR30c expression ([4]; control 0.96 ± 0.025) was 1.89 ± 0.25. For the same compound, the NF1 expression ([4]; control 1.56 ± 0.06) was 1.21 ± 0.033, the BID expression ([4]; control 1.56 ± 0.36) was 0.32 ± 0.012 and the RASA1 expression ([4]; control 1.69 ± 0.36) was 0.32 ± 0.031. The “expression of miR 30c and miR-21” value ([4]; mutant form of KRAS, microarray analysis) was “significantly reduced”, the “binding affinity to KRAS” value [5] was “nanomolar binder” and the “binding affinity to KRAS” value ([5]; listed as Compound I) was “good binding affinity”. The Cmax ([6]; rat, 10 mg/kg b.wt) was “Cmax = 1.9 μg/mL (10 mg/kg b.wt rat)”, the T1/2 ([6]; rats) was “T1/2 = 9.8 h (rats)” and the T max ([6]; rats, 10 mg/kg b.wt) was “T max = 2 h (rats, 10 mg/kg, b.wt; )”. The IC50 [7] was 3.24 ± 0.08 µM, the IC50 [8] was 4.21 ± 0.3 µM and the IC50 [9] was 4.89 ± 0.37 µM. For the same compound, the IC50 [10] was 2.98 ± 0.6 µM, the IC50 [11] was 7.52 ± 1.26 µM and the IC50 [12] was 5.19 ± 0.28 µM. It also gave an IC50 [13] of 106 ± 3.14 µM, an IC50 [14] of 4.45 ± 0.1 µM and an IC50 [15] of 1.69 ± 0.14 µM. The IC50 [16] was 3.65 ± 0.44 µM, the “apoptotic cells by cleaved caspase-3 staining in tumors” value ([17]; immunohistochemistry) was “prominent increase of apoptotic cells” and the “cell proliferation by Ki-67 staining in tumors” value ([17]; immunohistochemistry) was “large reduction in cell proliferation”. For the same compound, the “body weight loss or apparent toxicity” value ([17]; nude mice (n=6) after treatment) was “no significant body weight loss or apparent toxicity”, the “tumor growth suppression compared to vehicle treated controls” value ([17]; nude mice xenograft, suppression starting at day 9) was “significant suppression from day 10 to day 14” and the “average tumor weight less than the control group” value ([17]; nude mice, treated daily for 14-21 days, day of harvest) was 89%. For the same compound, the “CRAF, ERK, and AKT phosphorylation in tumor protein extracts” value ([17]; treated vs vehicle tumors) was “significant suppression”, the tumor growth suppression ([18]; all mutant-KRAS-expressing animal models, started at day 9) was “significant suppression from day 10-14” and the relapse ([18]; for 6-8 months) was “no evidence of relapse”. The “reduction in tumor growth” value ([18]; within 28 days) was 95% and the tumor growth [19] was “inhibited tumor growth”.
